Like-named read-outs stand apart in the source and are kept apart here.
What was measured:
Assay in all cases: Antimicrobial susceptibility testing (MIC), BD Phoenix Automated Microbiology System; on interpretation of the result: key: R, resistant; I, intermediate; S, susceptible; R*: *As a rule, when ESBL is detected, an interpretation of susceptible or intermediate for penicillins, cephalosporins and aztreonam is reported as resistant
Type in all cases: cell-based
Escherichia coli = settings: for MIC: Escherichia coli
Excerpt: (§1) The inventors performed antimicrobial susceptibility testing (AST) by determining the minimal inhibiting concentration (MIC) of a panel of antimicrobials on all twenty bacterial isolates using the BD Phoenix Automated Microbiology System (Table 3). Antimicrobial panels included several drugs from each of the four most commonly used classes of antimicrobials, aminoglycosides, β-lactams, carbapenems and fluoroquinolones. The panels also included antimicrobials from other classes, such as trimethoprim/sulfamethoxazole, but resistance to these was not considered in the classification of isolates as multidrug-resistant.

Acinetobacter baumannii = settings: for MIC: Acinetobacter baumannii
Excerpt: as §1

Klebsiella ssp. = settings: for MIC: Klebsiella
Excerpt: as §1

Pseudomonas aeruginosa = settings: for MIC: Pseudomonas aeruginosa
Excerpt: as §1

[1] = Acinetobacter baumannii isolate 1
[2] = Acinetobacter baumannii isolate 2
[3] = Acinetobacter baumannii isolate 3
[4] = Acinetobacter baumannii isolate 4
[5] = Acinetobacter baumannii isolate 5
[6] = Pseudomonas aeruginosa isolate 1
[7] = Pseudomonas aeruginosa isolate 2
[8] = Pseudomonas aeruginosa isolate 3
[9] = Pseudomonas aeruginosa isolate 4
[10] = Pseudomonas aeruginosa isolate 5
[11] = read-out: minimal inhibiting concentration, Escherichia coli isolate 1
[12] = read-out: minimal inhibiting concentration, Escherichia coli isolate 2
[13] = read-out: minimal inhibiting concentration, Escherichia coli isolate 3
[14] = read-out: minimal inhibiting concentration, Escherichia coli isolate 4
[15] = read-out: minimal inhibiting concentration, Escherichia coli isolate 5
[16] = read-out: minimal inhibiting concentration, Klebsiella ssp. isolate 2
[17] = read-out: minimal inhibiting concentration, Klebsiella ssp. isolate 3
[18] = read-out: minimal inhibiting concentration, Klebsiella ssp. isolate 4
[19] = read-out: minimal inhibiting concentration, Pseudomonas aeruginosa isolate 1
[20] = read-out: minimal inhibiting concentration, Pseudomonas aeruginosa isolate 2
[21] = read-out: minimal inhibiting concentration, Pseudomonas aeruginosa isolate 3
[22] = read-out: minimal inhibiting concentration, Pseudomonas aeruginosa isolate 4
[23] = read-out: minimal inhibiting concentration, Pseudomonas aeruginosa isolate 5

NCC[C@H](O)C(=O)N[C@@H]1C[C@H](N)[C@@H](O[C@H]2O[C@H](CN)[C@@H](O)[C@H](O)[C@H]2O)[C@H](O)[C@H]1O[C@H]1O[C@H](CO)[C@@H](O)[C@H](N)[C@H]1O [Amik., Amikacin]
32 µg/mL: minimal inhibiting concentration (Acinetobacter baumannii; [3]) | minimal inhibiting concentration (Pseudomonas aeruginosa; [9]) | minimal inhibiting concentration (Pseudomonas aeruginosa; [10])
> 32 µg/mL: minimal inhibiting concentration (Acinetobacter baumannii; [1]) | minimal inhibiting concentration (Acinetobacter baumannii; [2]) | minimal inhibiting concentration (Acinetobacter baumannii; [4]) | minimal inhibiting concentration (Acinetobacter baumannii; [5]) | minimal inhibiting concentration (Klebsiella ssp.; Klebsiella ssp. isolate 5)
≤ 8 µg/mL: minimal inhibiting concentration (Escherichia coli; Escherichia coli isolate 1) | minimal inhibiting concentration (Escherichia coli; Escherichia coli isolate 2) | minimal inhibiting concentration (Escherichia coli; Escherichia coli isolate 3) | minimal inhibiting concentration (Escherichia coli; Escherichia coli isolate 4) | minimal inhibiting concentration (Escherichia coli; Escherichia coli isolate 5) | minimal inhibiting concentration (Klebsiella ssp.; Klebsiella ssp. isolate 1) | minimal inhibiting concentration (Klebsiella ssp.; Klebsiella ssp. isolate 2) | minimal inhibiting concentration (Klebsiella ssp.; Klebsiella ssp. isolate 3) | minimal inhibiting concentration (Klebsiella ssp.; Klebsiella ssp. isolate 4) | minimal inhibiting concentration (Pseudomonas aeruginosa; [6])
S: interpretation of the result (Escherichia coli; Escherichia coli isolate 1) | interpretation of the result (Escherichia coli; Escherichia coli isolate 2) | interpretation of the result (Escherichia coli; Escherichia coli isolate 3) | interpretation of the result (Escherichia coli; Escherichia coli isolate 4) | interpretation of the result (Escherichia coli; Escherichia coli isolate 5) | interpretation of the result (Klebsiella ssp.; Klebsiella ssp. isolate 1) | interpretation of the result (Klebsiella ssp.; Klebsiella ssp. isolate 2) | interpretation of the result (Klebsiella ssp.; Klebsiella ssp. isolate 3) | interpretation of the result (Klebsiella ssp.; Klebsiella ssp. isolate 4) | interpretation of the result (Pseudomonas aeruginosa; [6]) | interpretation of the result (Pseudomonas aeruginosa; [7]) | interpretation of the result (Pseudomonas aeruginosa; [8])
I: interpretation of the result (Acinetobacter baumannii; [3]) | interpretation of the result (Pseudomonas aeruginosa; [9]) | interpretation of the result (Pseudomonas aeruginosa; [10])
16 µg/mL: minimal inhibiting concentration (Pseudomonas aeruginosa; [7]) | minimal inhibiting concentration (Pseudomonas aeruginosa; [8])
R: interpretation of the result (Acinetobacter baumannii; [1]) | interpretation of the result (Acinetobacter baumannii; [2]) | interpretation of the result (Acinetobacter baumannii; [4]) | interpretation of the result (Acinetobacter baumannii; [5]) | interpretation of the result (Klebsiella ssp.; Klebsiella ssp. isolate 5)

O=C1CN(/N=C/c2ccc([N+](=O)[O-])o2)C(=O)N1 [Nf., Nitrofurantoin]
> 64 µg/mL: MIC (Acinetobacter baumannii; read-out: minimal inhibiting concentration, Acinetobacter baumannii isolate 1) | MIC (Acinetobacter baumannii; read-out: minimal inhibiting concentration, Acinetobacter baumannii isolate 2) | MIC (Acinetobacter baumannii; read-out: minimal inhibiting concentration, Acinetobacter baumannii isolate 3) | MIC (Acinetobacter baumannii; read-out: minimal inhibiting concentration, Acinetobacter baumannii isolate 4) | MIC (Acinetobacter baumannii; read-out: minimal inhibiting concentration, Acinetobacter baumannii isolate 5) | MIC (Klebsiella ssp.; read-out: minimal inhibiting concentration, Klebsiella ssp. isolate 1) | MIC (Klebsiella ssp.; [16]) | MIC (Klebsiella ssp.; [17]) | MIC (Klebsiella ssp.; [18]) | MIC (Klebsiella ssp.; read-out: minimal inhibiting concentration, Klebsiella ssp. isolate 5) | MIC (Pseudomonas aeruginosa; [19]) | MIC (Pseudomonas aeruginosa; [20]) | MIC (Pseudomonas aeruginosa; [21]) | MIC (Pseudomonas aeruginosa; [22]) | MIC (Pseudomonas aeruginosa; [23])
32 µg/mL: MIC (Escherichia coli; [11])
S: interpretation of the result (Escherichia coli; Escherichia coli isolate 1) | interpretation of the result (Escherichia coli; Escherichia coli isolate 2) | interpretation of the result (Escherichia coli; Escherichia coli isolate 3) | interpretation of the result (Escherichia coli; Escherichia coli isolate 4) | interpretation of the result (Escherichia coli; Escherichia coli isolate 5)
R: interpretation of the result (Acinetobacter baumannii; [1]) | interpretation of the result (Acinetobacter baumannii; [2]) | interpretation of the result (Acinetobacter baumannii; [3]) | interpretation of the result (Acinetobacter baumannii; [4]) | interpretation of the result (Acinetobacter baumannii; [5]) | interpretation of the result (Klebsiella ssp.; Klebsiella ssp. isolate 1) | interpretation of the result (Klebsiella ssp.; Klebsiella ssp. isolate 2) | interpretation of the result (Klebsiella ssp.; Klebsiella ssp. isolate 3) | interpretation of the result (Klebsiella ssp.; Klebsiella ssp. isolate 4) | interpretation of the result (Klebsiella ssp.; Klebsiella ssp. isolate 5) | interpretation of the result (Pseudomonas aeruginosa; [6]) | interpretation of the result (Pseudomonas aeruginosa; [7]) | interpretation of the result (Pseudomonas aeruginosa; [8]) | interpretation of the result (Pseudomonas aeruginosa; [9]) | interpretation of the result (Pseudomonas aeruginosa; [10])
≤ 16 µg/mL: MIC (Escherichia coli; [12]) | MIC (Escherichia coli; [13]) | MIC (Escherichia coli; [14]) | MIC (Escherichia coli; [15])

Piperacillin-Tazobactam [PipT.]
64/4: minimal inhibiting concentration (Klebsiella ssp.; Klebsiella ssp. isolate 4) | minimal inhibiting concentration (Pseudomonas aeruginosa; [6]) | minimal inhibiting concentration (Pseudomonas aeruginosa; [7]) | minimal inhibiting concentration (Pseudomonas aeruginosa; [8]) | minimal inhibiting concentration (Pseudomonas aeruginosa; [10])
S: interpretation of the result (Escherichia coli; Escherichia coli isolate 2) | interpretation of the result (Klebsiella ssp.; Klebsiella ssp. isolate 3) | interpretation of the result (Pseudomonas aeruginosa; [9])
16/4: minimal inhibiting concentration (Escherichia coli; Escherichia coli isolate 4) | minimal inhibiting concentration (Klebsiella ssp.; Klebsiella ssp. isolate 3)
32/4: minimal inhibiting concentration (Escherichia coli; Escherichia coli isolate 1) | minimal inhibiting concentration (Escherichia coli; Escherichia coli isolate 3) | minimal inhibiting concentration (Escherichia coli; Escherichia coli isolate 5) | minimal inhibiting concentration (Klebsiella ssp.; Klebsiella ssp. isolate 2) | minimal inhibiting concentration (Pseudomonas aeruginosa; [9])
2/4: minimal inhibiting concentration (Escherichia coli; Escherichia coli isolate 2)
I: interpretation of the result (Escherichia coli; Escherichia coli isolate 1) | interpretation of the result (Escherichia coli; Escherichia coli isolate 3) | interpretation of the result (Escherichia coli; Escherichia coli isolate 4) | interpretation of the result (Escherichia coli; Escherichia coli isolate 5) | interpretation of the result (Klebsiella ssp.; Klebsiella ssp. isolate 2)
R: interpretation of the result (Klebsiella ssp.; Klebsiella ssp. isolate 4) | interpretation of the result (Pseudomonas aeruginosa; [6]) | interpretation of the result (Pseudomonas aeruginosa; [7]) | interpretation of the result (Pseudomonas aeruginosa; [8]) | interpretation of the result (Pseudomonas aeruginosa; [10])

CO/N=C(\C(=O)N[C@@H]1C(=O)N2C(C(=O)O)=C(CSc3nc(=O)c(=O)[nH]n3C)CS[C@H]12)c1csc(N)n1 [Co., Ceftriaxone]
16 µg/mL: MIC (Klebsiella ssp.; [17])
> 32 µg/mL: MIC (Escherichia coli; [11]) | MIC (Escherichia coli; [12]) | MIC (Escherichia coli; [13]) | MIC (Escherichia coli; [14]) | MIC (Escherichia coli; [15]) | MIC (Klebsiella ssp.; [16]) | MIC (Klebsiella ssp.; [18]) | MIC (Pseudomonas aeruginosa; [19]) | MIC (Pseudomonas aeruginosa; [20]) | MIC (Pseudomonas aeruginosa; [21]) | MIC (Pseudomonas aeruginosa; [22]) | MIC (Pseudomonas aeruginosa; [23])
R: interpretation of the result (Escherichia coli; Escherichia coli isolate 1) | interpretation of the result (Escherichia coli; Escherichia coli isolate 2) | interpretation of the result (Escherichia coli; Escherichia coli isolate 3) | interpretation of the result (Escherichia coli; Escherichia coli isolate 4) | interpretation of the result (Escherichia coli; Escherichia coli isolate 5) | interpretation of the result (Klebsiella ssp.; Klebsiella ssp. isolate 2) | interpretation of the result (Klebsiella ssp.; Klebsiella ssp. isolate 3) | interpretation of the result (Klebsiella ssp.; Klebsiella ssp. isolate 4) | interpretation of the result (Pseudomonas aeruginosa; [6]) | interpretation of the result (Pseudomonas aeruginosa; [7]) | interpretation of the result (Pseudomonas aeruginosa; [8]) | interpretation of the result (Pseudomonas aeruginosa; [9]) | interpretation of the result (Pseudomonas aeruginosa; [10])

CO[C@@]1(NC(=O)Cc2cccs2)C(=O)N2C(C(=O)O)=C(COC(N)=O)CS[C@@H]21 [Cx., Cefoxitin]
8 µg/mL: MIC (Escherichia coli; [11]) | MIC (Escherichia coli; [13]) | MIC (Escherichia coli; [15]) | MIC (Klebsiella ssp.; [18])
≤ 4 µg/mL: MIC (Escherichia coli; [12]) | MIC (Klebsiella ssp.; [16])
S: interpretation of the result (Escherichia coli; Escherichia coli isolate 1) | interpretation of the result (Escherichia coli; Escherichia coli isolate 2) | interpretation of the result (Escherichia coli; Escherichia coli isolate 3) | interpretation of the result (Escherichia coli; Escherichia coli isolate 5) | interpretation of the result (Klebsiella ssp.; Klebsiella ssp. isolate 2) | interpretation of the result (Klebsiella ssp.; Klebsiella ssp. isolate 4)
> 16 µg/mL: MIC (Escherichia coli; [14]) | MIC (Klebsiella ssp.; [17]) | MIC (Pseudomonas aeruginosa; [19]) | MIC (Pseudomonas aeruginosa; [20]) | MIC (Pseudomonas aeruginosa; [21]) | MIC (Pseudomonas aeruginosa; [22]) | MIC (Pseudomonas aeruginosa; [23])
R: interpretation of the result (Escherichia coli; Escherichia coli isolate 4) | interpretation of the result (Klebsiella ssp.; Klebsiella ssp. isolate 3) | interpretation of the result (Pseudomonas aeruginosa; [6]) | interpretation of the result (Pseudomonas aeruginosa; [7]) | interpretation of the result (Pseudomonas aeruginosa; [8]) | interpretation of the result (Pseudomonas aeruginosa; [9]) | interpretation of the result (Pseudomonas aeruginosa; [10])

Cc1nnc(SCC2=C(C(=O)O)N3C(=O)[C@@H](NC(=O)Cn4cnnn4)[C@H]3SC2)s1 [Cefa., Cefazolin]
> 16 µg/mL: MIC (Escherichia coli; [11]) | MIC (Escherichia coli; [12]) | MIC (Escherichia coli; [13]) | MIC (Escherichia coli; [14]) | MIC (Escherichia coli; [15]) | MIC (Klebsiella ssp.; [16]) | MIC (Klebsiella ssp.; [17]) | MIC (Klebsiella ssp.; [18]) | MIC (Pseudomonas aeruginosa; [19]) | MIC (Pseudomonas aeruginosa; [20]) | MIC (Pseudomonas aeruginosa; [21]) | MIC (Pseudomonas aeruginosa; [22]) | MIC (Pseudomonas aeruginosa; [23])
R: interpretation of the result (Escherichia coli; Escherichia coli isolate 1) | interpretation of the result (Escherichia coli; Escherichia coli isolate 2) | interpretation of the result (Escherichia coli; Escherichia coli isolate 3) | interpretation of the result (Escherichia coli; Escherichia coli isolate 4) | interpretation of the result (Escherichia coli; Escherichia coli isolate 5) | interpretation of the result (Klebsiella ssp.; Klebsiella ssp. isolate 2) | interpretation of the result (Klebsiella ssp.; Klebsiella ssp. isolate 3) | interpretation of the result (Klebsiella ssp.; Klebsiella ssp. isolate 4) | interpretation of the result (Pseudomonas aeruginosa; [6]) | interpretation of the result (Pseudomonas aeruginosa; [7]) | interpretation of the result (Pseudomonas aeruginosa; [8]) | interpretation of the result (Pseudomonas aeruginosa; [9]) | interpretation of the result (Pseudomonas aeruginosa; [10])

— patent US9529005B2, “Modulating bacterial MAM polypeptides in pathogenic disease” (priority 2011, dated 2016)
